In patent US12247045B2, “MAP4K4 inhibitors” (Imperial College Innovations Limited, priority 2018, dated 2025):

Key:
[1] = biological target: MINK1/MAP4K6 (Homo sapiens, UniProt Q8N4C8); experiment: Kinase selectivity panel, MINK1/MAP4K6; type: biochemical; details: read-out: pIC50 MINK1/MAP4K6 (converted)
Source text: (§1) The data in Table 42 also provides the fold selectivity of the two compounds in favour of MAP4K4 over the tested kinase. The fold selectivity is indicated in parenthesis.

[2] = biological target: TNIK/MAP4K7 (Homo sapiens, UniProt Q9UKE5); experiment: Kinase selectivity panel, TNIK/MAP4K7; type: biochemical; details: read-out: pIC50 TNIK/MAP4K7 (converted)
TNIK/MAP4K7, sequence (Q9UKE5 whole entry): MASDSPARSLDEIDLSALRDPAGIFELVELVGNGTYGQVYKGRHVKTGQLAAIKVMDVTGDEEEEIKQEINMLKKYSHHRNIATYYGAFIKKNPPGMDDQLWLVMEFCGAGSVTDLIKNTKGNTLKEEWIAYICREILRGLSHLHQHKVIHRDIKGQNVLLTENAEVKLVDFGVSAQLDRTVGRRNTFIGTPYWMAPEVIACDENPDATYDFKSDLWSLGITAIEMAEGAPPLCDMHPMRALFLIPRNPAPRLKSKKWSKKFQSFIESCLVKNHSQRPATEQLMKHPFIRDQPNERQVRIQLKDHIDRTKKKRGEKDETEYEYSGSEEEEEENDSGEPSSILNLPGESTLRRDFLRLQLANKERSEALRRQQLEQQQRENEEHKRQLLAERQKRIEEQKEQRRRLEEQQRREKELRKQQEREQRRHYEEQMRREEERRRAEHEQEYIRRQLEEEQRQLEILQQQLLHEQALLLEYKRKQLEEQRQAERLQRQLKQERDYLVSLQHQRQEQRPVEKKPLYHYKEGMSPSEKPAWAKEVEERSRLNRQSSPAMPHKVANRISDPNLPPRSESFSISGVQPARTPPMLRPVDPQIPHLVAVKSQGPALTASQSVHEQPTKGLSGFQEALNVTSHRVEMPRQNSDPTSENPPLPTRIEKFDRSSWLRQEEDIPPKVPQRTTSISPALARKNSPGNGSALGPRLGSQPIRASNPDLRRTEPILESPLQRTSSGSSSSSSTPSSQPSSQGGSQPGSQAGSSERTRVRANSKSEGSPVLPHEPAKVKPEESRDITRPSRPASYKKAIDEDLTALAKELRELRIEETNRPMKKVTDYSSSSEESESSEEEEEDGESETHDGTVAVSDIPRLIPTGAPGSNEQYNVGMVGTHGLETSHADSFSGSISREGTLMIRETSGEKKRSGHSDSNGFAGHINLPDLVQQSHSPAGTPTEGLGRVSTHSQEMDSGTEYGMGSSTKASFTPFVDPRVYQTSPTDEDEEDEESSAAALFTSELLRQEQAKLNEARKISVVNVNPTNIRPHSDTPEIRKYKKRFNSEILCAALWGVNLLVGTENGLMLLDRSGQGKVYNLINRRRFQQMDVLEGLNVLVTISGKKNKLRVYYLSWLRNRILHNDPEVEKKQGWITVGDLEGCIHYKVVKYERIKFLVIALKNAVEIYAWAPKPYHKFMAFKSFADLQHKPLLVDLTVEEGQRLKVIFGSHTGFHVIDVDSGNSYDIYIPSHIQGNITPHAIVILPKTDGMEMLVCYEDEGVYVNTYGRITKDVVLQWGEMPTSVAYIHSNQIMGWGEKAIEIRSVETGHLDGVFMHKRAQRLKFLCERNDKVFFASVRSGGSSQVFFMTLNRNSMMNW
Source text: as §1

[3] = biological target: T1, GCK/MAP4K2 (Homo sapiens, UniProt Q12851); experiment: Kinase selectivity panel, GCK/MAP4K2; type: biochemical
T1 sequence (Q12851 1-820): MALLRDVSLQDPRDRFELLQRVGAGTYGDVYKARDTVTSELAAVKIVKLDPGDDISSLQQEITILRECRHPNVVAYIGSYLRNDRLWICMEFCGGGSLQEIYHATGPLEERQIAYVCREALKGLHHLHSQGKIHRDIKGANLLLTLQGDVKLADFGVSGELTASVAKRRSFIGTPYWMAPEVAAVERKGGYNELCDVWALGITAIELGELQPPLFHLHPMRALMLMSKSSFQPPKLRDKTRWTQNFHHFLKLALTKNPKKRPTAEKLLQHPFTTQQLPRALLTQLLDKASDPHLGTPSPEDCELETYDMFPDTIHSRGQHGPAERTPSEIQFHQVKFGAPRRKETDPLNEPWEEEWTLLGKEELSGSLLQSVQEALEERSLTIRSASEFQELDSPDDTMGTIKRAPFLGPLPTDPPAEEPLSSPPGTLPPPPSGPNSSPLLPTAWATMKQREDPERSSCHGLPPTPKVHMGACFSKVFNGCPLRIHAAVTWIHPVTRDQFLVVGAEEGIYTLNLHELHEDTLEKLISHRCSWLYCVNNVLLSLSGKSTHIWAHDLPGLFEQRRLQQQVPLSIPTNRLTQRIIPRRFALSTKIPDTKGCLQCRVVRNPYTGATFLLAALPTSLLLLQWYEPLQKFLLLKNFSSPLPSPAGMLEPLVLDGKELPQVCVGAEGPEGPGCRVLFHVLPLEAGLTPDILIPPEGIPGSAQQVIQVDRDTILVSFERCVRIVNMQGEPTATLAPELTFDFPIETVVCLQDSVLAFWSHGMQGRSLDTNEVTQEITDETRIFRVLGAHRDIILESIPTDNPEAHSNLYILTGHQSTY
Source text: as §1

[4] = biological target: T2, GLK/MAP4K3 (Homo sapiens, UniProt Q8IVH8); experiment: Kinase selectivity panel, GLK/MAP4K3; type: biochemical
T2 sequence (Q8IVH8 1-894): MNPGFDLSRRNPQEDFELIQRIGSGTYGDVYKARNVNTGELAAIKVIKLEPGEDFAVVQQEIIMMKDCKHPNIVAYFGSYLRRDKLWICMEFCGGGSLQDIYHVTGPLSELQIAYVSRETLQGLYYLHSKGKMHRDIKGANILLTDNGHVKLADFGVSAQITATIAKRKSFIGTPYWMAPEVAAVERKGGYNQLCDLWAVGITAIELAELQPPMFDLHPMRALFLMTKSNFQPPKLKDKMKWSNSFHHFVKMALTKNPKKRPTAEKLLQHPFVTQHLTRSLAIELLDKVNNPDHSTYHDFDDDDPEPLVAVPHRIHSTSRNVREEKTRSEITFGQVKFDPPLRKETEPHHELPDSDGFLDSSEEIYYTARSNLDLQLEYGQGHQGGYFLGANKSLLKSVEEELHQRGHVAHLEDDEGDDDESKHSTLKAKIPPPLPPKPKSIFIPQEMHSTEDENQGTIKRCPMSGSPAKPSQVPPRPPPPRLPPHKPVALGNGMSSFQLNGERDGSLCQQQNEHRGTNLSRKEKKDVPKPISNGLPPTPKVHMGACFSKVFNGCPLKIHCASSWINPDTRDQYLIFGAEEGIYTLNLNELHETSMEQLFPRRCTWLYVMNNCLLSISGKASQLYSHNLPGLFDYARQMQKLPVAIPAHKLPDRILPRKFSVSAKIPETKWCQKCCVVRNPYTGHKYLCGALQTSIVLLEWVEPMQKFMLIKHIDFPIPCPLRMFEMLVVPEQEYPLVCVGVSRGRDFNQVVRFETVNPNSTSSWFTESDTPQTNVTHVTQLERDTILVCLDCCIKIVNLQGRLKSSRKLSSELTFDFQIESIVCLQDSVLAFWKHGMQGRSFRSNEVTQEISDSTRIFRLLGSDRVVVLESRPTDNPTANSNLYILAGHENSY
Source text: as §1

[5] = biological target: KHS/MAP4K5 (Homo sapiens, UniProt Q9Y4K4); experiment: Kinase selectivity panel, KHS/MAP4K5; type: biochemical
KHS/MAP4K5, sequence (Q9Y4K4 whole entry): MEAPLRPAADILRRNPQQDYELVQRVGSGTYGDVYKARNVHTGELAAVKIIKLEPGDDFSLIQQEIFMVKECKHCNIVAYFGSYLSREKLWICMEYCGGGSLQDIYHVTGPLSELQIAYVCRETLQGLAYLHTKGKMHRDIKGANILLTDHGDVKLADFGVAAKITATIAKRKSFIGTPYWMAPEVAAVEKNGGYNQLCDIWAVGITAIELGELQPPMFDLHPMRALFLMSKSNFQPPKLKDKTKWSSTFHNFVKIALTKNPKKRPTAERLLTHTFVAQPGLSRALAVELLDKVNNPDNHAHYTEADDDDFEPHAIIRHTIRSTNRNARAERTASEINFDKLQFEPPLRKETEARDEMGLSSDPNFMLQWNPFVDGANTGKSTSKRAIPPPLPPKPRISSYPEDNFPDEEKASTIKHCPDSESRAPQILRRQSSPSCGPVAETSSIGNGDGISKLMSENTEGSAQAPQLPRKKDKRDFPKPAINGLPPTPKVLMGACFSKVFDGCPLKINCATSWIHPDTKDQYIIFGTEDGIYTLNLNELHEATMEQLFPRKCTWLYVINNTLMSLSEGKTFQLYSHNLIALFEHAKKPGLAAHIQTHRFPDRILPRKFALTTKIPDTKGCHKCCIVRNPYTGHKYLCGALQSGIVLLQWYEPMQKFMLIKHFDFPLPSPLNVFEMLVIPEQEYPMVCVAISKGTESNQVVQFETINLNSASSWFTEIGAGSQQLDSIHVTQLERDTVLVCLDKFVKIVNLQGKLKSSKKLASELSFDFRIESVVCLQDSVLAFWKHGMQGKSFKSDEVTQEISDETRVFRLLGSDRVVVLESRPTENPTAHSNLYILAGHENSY
Source text: as §1

[6] = biological target: ABL1 (Homo sapiens, UniProt P00519); experiment: Kinase selectivity panel, ABL1; type: biochemical
ABL1, sequence (P00519 whole entry, species assumed): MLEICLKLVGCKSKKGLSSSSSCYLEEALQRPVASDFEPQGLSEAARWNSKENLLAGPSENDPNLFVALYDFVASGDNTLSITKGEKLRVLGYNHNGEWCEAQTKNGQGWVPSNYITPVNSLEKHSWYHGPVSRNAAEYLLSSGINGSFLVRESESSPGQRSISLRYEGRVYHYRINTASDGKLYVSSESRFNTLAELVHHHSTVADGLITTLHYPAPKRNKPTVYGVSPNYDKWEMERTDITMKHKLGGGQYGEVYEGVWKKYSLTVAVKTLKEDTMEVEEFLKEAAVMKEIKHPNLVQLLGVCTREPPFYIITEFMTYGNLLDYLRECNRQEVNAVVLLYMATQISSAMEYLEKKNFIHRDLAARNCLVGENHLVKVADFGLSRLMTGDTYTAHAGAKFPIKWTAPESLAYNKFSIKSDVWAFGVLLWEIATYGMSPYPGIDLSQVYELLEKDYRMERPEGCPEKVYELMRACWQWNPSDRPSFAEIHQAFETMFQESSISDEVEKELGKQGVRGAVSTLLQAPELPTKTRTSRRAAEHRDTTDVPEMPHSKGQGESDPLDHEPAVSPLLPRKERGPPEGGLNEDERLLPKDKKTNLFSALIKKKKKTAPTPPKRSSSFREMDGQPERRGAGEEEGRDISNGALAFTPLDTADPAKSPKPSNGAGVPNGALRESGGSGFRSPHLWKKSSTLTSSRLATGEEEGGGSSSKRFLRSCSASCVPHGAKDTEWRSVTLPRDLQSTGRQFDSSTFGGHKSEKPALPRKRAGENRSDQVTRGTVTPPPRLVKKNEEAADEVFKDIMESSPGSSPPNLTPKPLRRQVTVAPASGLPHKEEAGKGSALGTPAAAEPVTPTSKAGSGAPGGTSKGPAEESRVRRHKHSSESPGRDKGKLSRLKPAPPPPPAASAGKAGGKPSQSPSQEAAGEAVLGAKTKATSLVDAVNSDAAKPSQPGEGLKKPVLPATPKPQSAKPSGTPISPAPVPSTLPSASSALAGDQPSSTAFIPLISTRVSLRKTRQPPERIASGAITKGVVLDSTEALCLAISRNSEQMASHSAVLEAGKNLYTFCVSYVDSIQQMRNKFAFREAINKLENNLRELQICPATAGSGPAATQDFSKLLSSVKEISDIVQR
Source text: as §1

[7] = biological target: MLK1/MAP3K9 (Homo sapiens, UniProt P80192); experiment: Kinase selectivity panel, MLK1/MAP3K9; type: biochemical
MLK1/MAP3K9, sequence (P80192 whole entry): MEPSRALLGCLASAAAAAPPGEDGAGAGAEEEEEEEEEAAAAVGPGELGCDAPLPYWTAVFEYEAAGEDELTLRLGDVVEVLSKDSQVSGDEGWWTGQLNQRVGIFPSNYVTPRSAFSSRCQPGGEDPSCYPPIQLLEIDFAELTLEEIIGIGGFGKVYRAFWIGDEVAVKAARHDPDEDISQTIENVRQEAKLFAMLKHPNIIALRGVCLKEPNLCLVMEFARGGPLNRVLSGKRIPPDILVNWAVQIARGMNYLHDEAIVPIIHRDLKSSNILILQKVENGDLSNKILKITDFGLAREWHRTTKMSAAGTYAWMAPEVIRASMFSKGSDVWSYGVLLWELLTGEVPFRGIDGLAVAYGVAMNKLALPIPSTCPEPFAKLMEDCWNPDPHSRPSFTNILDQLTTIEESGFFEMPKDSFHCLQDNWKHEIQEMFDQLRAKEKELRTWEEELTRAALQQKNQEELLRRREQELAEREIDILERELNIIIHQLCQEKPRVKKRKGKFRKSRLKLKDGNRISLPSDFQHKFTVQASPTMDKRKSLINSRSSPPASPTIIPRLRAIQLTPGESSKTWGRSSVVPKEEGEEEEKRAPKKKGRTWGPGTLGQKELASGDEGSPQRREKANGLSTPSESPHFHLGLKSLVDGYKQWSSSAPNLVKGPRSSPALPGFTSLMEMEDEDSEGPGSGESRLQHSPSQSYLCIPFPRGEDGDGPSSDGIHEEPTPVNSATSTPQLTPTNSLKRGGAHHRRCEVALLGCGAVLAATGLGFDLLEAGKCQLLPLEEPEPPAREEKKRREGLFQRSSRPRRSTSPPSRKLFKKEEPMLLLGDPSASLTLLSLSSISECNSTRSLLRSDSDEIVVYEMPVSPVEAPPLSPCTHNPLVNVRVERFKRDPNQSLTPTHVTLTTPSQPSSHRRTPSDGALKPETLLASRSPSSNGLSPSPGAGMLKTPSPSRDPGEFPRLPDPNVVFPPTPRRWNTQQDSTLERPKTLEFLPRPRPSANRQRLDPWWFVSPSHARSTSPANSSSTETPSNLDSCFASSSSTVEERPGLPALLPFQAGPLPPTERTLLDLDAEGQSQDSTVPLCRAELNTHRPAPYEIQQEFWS
Source text: as §1

[8] = test system: mice undergoing experimental myocardial infarction; experiment: Infarct size in mice undergoing experimental myocardial infarction; type: in vivo; details: compared to vehicle control (DMSO)
Description: To test if target validation and compound development in hiPSC-CMs might predict success in a whole-animal context, mice undergoing experimental myocardial infarction were treated with Ex-78 or the vehicle control (DMSO) (FIG. 6). The suppression of cardiac muscle cell death achieved roughly a 55% reduction in infarct size as a proportion of the area at ischemic risk compared to control.

With `CC(C)(O)CCOc1ccc(-c2cn(-c3cccnc3)c3nc[nH]c(=O)c23)cc1` [Ex-78, 5-(4-(3-hydroxy-3-methylbutoxy)phenyl)-7-(pyridin-3-yl)-3,7-dihydro-4H-pyrrolo[2,3-d]pyrimidin-4-one] the IC50 [1] was 63.1 nM, the IC50 [2] was 126 nM and the “fold selectivity MAP4K4 over GCK/MAP4K2” value ([3]; in favour of MAP4K4) was “(32) fold”. The IC50 ([3]; read-out: pIC50 GCK/MAP4K2 (converted)) was 1000 nM, the “fold selectivity MAP4K4 over GLK/MAP4K3” value ([4]; in favour of MAP4K4) was “(50) fold” and the IC50 ([4]; read-out: pIC50 GLK/MAP4K3 (converted)) was 1580 nM. For the same compound, the “fold selectivity MAP4K4 over KHS/MAP4K5” value ([5]; in favour of MAP4K4) was “(10) fold”, the IC50 ([5]; read-out: pIC50 KHS/MAP4K5 (converted)) was 316 nM and the “fold selectivity MAP4K4 over ABL1” value ([6]; in favour of MAP4K4) was “(251) fold”. For the same compound, the IC50 ([6]; read-out: pIC50 ABL1 (converted)) was 7940 nM, the “fold selectivity MAP4K4 over MLK1/MAP3K9” value ([7]; in favour of MAP4K4) was “(4) fold” and the IC50 ([7]; read-out: pIC50 MLK1/MAP3K9 (converted)) was 126 nM. The “reduction in infarct size as a proportion of the area at ischemic risk” value [8] was ~55%.
